In general, IC50 refers to the concentration that inhibits the measured activity by half. A lower IC50 goes with inhibition by little substance. Usually EC50 stands for the concentration giving half of the maximal effect. As usually defined, the Emax is the maximal effect, on the per cent scale that the assay sets.

Six molecules from ChEMBL document CHEMBL4342461, “Schwarzinicines A-G, 1,4-Diarylbutanoid-Phenethylamine Conjugates from the Leaves of Ficus schwarzii” (J Nat Prod, 2020) can be followed below.

One assay concerns HCT-116. Kind of assay: Cytotoxicity against human HCT116 cells after 72 hrs by neutral red uptake assay. It counts as cell-based. The note with it: HCT-116, 72 h.
Another assay deals with A549. Nature of the assay: Cytotoxicity against human A549 cells after 72 hrs by neutral red uptake assay. It counts as cell-based. The note with it: A549, 72 h.
In a further assay the test system is MCF7. Kind of assay: Cytotoxicity against human MCF7 cells after 72 hrs by neutral red uptake assay. It counts as cell-based. The settings on record: MCF7, 72 h.
For assay [1], the system named is Aorta. Nature of the assay: Vasorelaxant activity in Sprague-Dawley rat aortic rings assessed as reduction in phenylephrine-induced contractions. The assay is classed as functional, tissue-based.
For assay [2], the system named is Aorta. Kind of assay: Vasorelaxant activity in Sprague-Dawley rat aortic rings assessed as reduction in phenylephrine-induced contractions by measuring maximum relaxation magnitude relative to control. The assay is classed as functional.

A value given as a limit tells only on which side of the number the result lay.

With `CC[C@]1(O)C[C@@H]2CN(CCc3c([nH]c4ccccc34)[C@@](C(=O)OC)(c3cc4c(cc3OC)N(C)[C@H]3[C@@](O)(C(=O)OC)[C@H](OC(C)=O)[C@]5(CC)C=CCN6CC[C@]43[C@@H]65)C2)C1` [VINBLASTINE], the concentration for half-maximal inhibition (IC50) with HCT-116 is 0.5 nM; in the assay on A549, 10 nM; in the assay on MCF7, 1 nM.
Regarding `COc1ccc(CCC(Cc2ccc(OC)c(OC)c2)NCCc2cc(OC)c3c(c2)OCO3)cc1OC` (stereo not drawn), in the assay on Aorta [1], the Activity entry is “Dose-dependent effect” and the EC50 was 2100 nM. Moreover, the Emax in the assay on Aorta [2] stood at 116%.
Consider `COc1ccc(CCNC(CCc2ccc(OC)c(OC)c2)Cc2ccc(OC)c(OC)c2)cc1OC` (stereo not drawn), for which the IC50 in the assay on HCT-116, in the assay with A549 and with MCF7 was above 10000 nM each time. For the same molecule, the Activity entry with Aorta [1] is “Dose-dependent effect”. Also, the half-maximal effective concentration (EC50) with Aorta [1] is 2010 nM. In the assay on Aorta [2], the maximum response (Emax) came to 119%.
In the case of `COc1ccc(CCC(Cc2ccc(OC)c(OC)c2)N(C)CCc2ccc(OC)c(OC)c2)cc1OC` (stereo not drawn), the concentration for half-maximal inhibition (IC50) in the assay with HCT-116, in the assay on A549 and in the assay with MCF7 was above 10000 nM throughout. Further, the Activity entry in the assay on Aorta [1] is “Dose-dependent effect”. Also, the concentration for a half-maximal effect (EC50) with Aorta [1] was found to be 960 nM. For the same molecule, in the assay with Aorta [2], the Emax came out at 106%.
In the case of `COc1ccc(CCC(Cc2ccc(OC)c(OC)c2)NCCc2ccc3c(c2)OCO3)cc1OC` (stereo not drawn), in the assay with Aorta [1], the Activity result was “Dose-dependent effect” and the concentration giving a half-maximal response (EC50) amounted to 1880 nM. The Emax in the assay with Aorta [2] was 120%.
In the case of `CC(CCc1ccc(O)cc1)NCCc1ccc(O)c(O)c1` (stereo not drawn) [DOBUTAMINE], the EC50 in the assay with Aorta [1] was 2500 nM. Moreover, in the assay on Aorta [2], the maximal response (Emax) is 92%.
